Assay results reported in patent publication US4550101A, “Iron complexes of hydroxy pyridones useful for treating iron deficiency anemia” (priority 1982, dated 1985).
Read-outs that look alike come from different tables or passages of the source. Values belong to the molecule of their own block, whether it stands above or below them.

Legend:
[1] = Partition between n-octanol and aqueous tris hydrochloride (Kpart); type: physicochemical; conditions: for Partition Coefficient, Kpart, Iron complex [Fe^III-(compound)3]: 100 µM
Description: Acid washed glassware is used throughout and, following mixing of 5 ml of the 10^-4 M aqueous solution with 5 ml of n-octanol for 1 minute, the aqueous n-octanol mixture is centrifuged at 1,000 g for 30 seconds. The two resulting phases are separated for a concentration determination by spectrophotometry on each.

rat jejunal sac = assay: Iron uptake into the serosal space of the inverted rat jejunal sac
Description: Rats (male Sprague Dawley, 60 g) were killed and the jejunum removed, everted and cut into three segments (4 cm length). The segments were tied at both ends and filled with Krebs Ringer buffer (0.2 ml) and incubated in Krebs Ringer buffer containing ^59 Fe complexes at 37° C. for periods up to 1 hour. The contents of the sac were counted for ^59 Fe and measured spectrophotometrically.

human erythrocytes [2] = conditions: pH 7.4
Description: (§1) Following this period of incubation, an aliquot of the erythrocyte/medium mixture was placed above a layer of silcone oil and the erythrocytes separated by centrifugation through the oil. The ^59 Fe levels associated with the erythrocytes and the incubation medium were then counted.

apotransferrin = assay: Ability of iron complexes to donate iron to apotransferrin; type: biochemical; conditions: within 10 minutes, 37° C., pH 7.4, 10^-4 M complex, 10^-4 M apotransferrin
Description: At 10, 20, 30 and 60 minute intervals 1 ml aliquots were removed from the media and added to a PD10 colum. 0.5 ml fractions were collected directly into scintillation vials for counting. The ^59 Fe associated with both the apotransferrin and the ligand was estimated as a function of time. […] Thus, although both the 3-hydroxypyrid-2-ones and the 3-hydroxypyrid-4-ones are able to denote iron to apotransferrin, the former are the more efficient.

cat intestine [3] = conditions: in vivo
Description: (§2) The total ^59 Fe present in the kidneys and urine was then measured in each case.
(§3) As well as the kidneys, various other tissues of the cat which recieved the Fe(III) 1-ethyl-3-hydroxypyrid-2-one were studied to assess the percentage of the original ^59 Fe dose which was present.

[4] = Clearance and tissue distribution of 59Fe after intravenous injection in the cat; type: in vivo
Description: as §3

human erythrocytes [5] = assay: Accumulation of iron complexes by human erythrocytes; conditions: 1 hour, 37° C., pH 7.4, 10^-3 M complex, 5% erythrocyte suspension; mean of at least three determinations
Description: as §1

cat intestine [6] = assay: In vivo permeability of cat intestine towards iron complexes: 59Fe in blood, kidneys, urine and tissues after administration into the small intestine; conditions: for Concentration of [59Fe] in blood: 1 mg iron, pyridone complex with 20-fold excess of free pyridone
Description: as §2, §3

[7] = n-octanol/tris hydrochloride, pH 7.4
[8] = relative to ferric chloride as 1, 37° C., up to 1 hour
[9] = n-octanol / 20 mM tris hydrochloride pH 7.4, 20° C., 10^-4 M, read-out: Partition Coefficient, Kpart, Free Compound (converted)

SMILES: CCCn1cccc(O)c1=O [3-hydroxy-1-propylpyrid-2-one]
logD at 100 µM [1, 7]: -0.108

SMILES: [Cl][Fe]([Cl])[Cl] [FeCl3, ferric chloride]
Relative Iron Uptake (rat jejunal sac): 1

SMILES: CCCCn1ccc(=O)c(O)c1C [1-butyl-3-hydroxy-2-methylpyrid-4-one, 1-Butyl-3-hydroxy-2-methylpyrid-4-one]
logD at 100 µM [1, 9]: 0.724

SMILES: CC(C)n1cccc(O)c1=O [3-hydroxy-1-(1'-methylethyl)-pyrid-2-one, 3-hydroxy-1-(1'-methylethyl)pyrid-2-one]
logD at 100 µM [1, 7]: 0.491

SMILES: Cc1c(O)c(=O)ccn1C(C)C [3-Hydroxy-2-methyl-1-(1'-methylethyl)pyrid-4-one]
logD at 100 µM [1, 9]: -0.0223

SMILES: CCn1cccc([O-])c1=O.CCn1cccc([O-])c1=O.CCn1cccc([O-])c1=O.[Fe+3] [iron complex of 1-ethyl-3-hydroxypyrid-2-one]
Partition Coefficient, Kpart, Iron complex [Fe^III-(compound)3] ([1]; n-octanol / 20 mM tris hydrochloride pH 7.4, 20° C., 10^-4 M): 1.06 | iron removed from the iron complex by apotransferrin (apotransferrin): over 90% | Relative Iron Uptake (rat jejunal sac; [8]): 37 | dose appearing in the urine [4]: less than 1% | half life of clearance from the circulation [4]: 45 min | Percentage of original 59Fe dose, Blood ([4]; after 4 hours): 7% | Percentage of original 59Fe dose, Heart ([4]; after 4 hours): 1.1% | Percentage of original 59Fe dose, Kidneys ([4]; after 4 hours): 1% | Percentage of original 59Fe dose, Liver ([4]; after 4 hours): 5.3% | Percentage of original 59Fe dose, Skeletal Muscle ([4]; after 4 hours): 0.5% | Percentage of original 59Fe dose, Spleen ([4]; after 4 hours): 0.7% | Percentage of original 59Fe dose, Urine ([4]; after 4 hours): 0.5% | Percentage of original 59Fe dose, Reticuloendothelial System (Bone Marrow) ([4]; after 4 hours, estimated): ~80% | Amount of complex entering erythrocytes (human erythrocytes [5]): 250 n.mole | Concentration of [59Fe] in blood (cat intestine [6]; 20 minutes after administration into small intestine): 200 c.p.m. | Concentration of [59Fe] in blood (cat intestine [6]; 40 minutes after administration into small intestine): 475 c.p.m. | Concentration of [59Fe] in blood (cat intestine [6]; 60 minutes after administration into small intestine): 643 c.p.m. | Concentration of [59Fe] in blood (cat intestine [6]; 80 minutes after administration into small intestine): 661 c.p.m. | Concentration of [59Fe] in blood (cat intestine [6]; 100 minutes after administration into small intestine): 784 c.p.m. | Concentration of [59Fe] in blood (cat intestine [6]; 120 minutes after administration into small intestine): 870 c.p.m. | Concentration of [59Fe] in blood (cat intestine [6]; 140 minutes after administration into small intestine): 834 c.p.m. | Concentration of [59Fe] in blood (cat intestine [6]; 160 minutes after administration into small intestine): 750 c.p.m. | Concentration of [59Fe] in blood (cat intestine [6]; 180 minutes after administration into small intestine): 900 c.p.m. | clearance into the urine (cat intestine [6]; 4 hours, into small intestine): very slow | percentage of the total dose in the kidneys (cat intestine [6]; 4 hours, into small intestine): 0.05% | percentage of the total dose in the urine (cat intestine [6]; 4 hours, into small intestine): no more than 0.01% | Concentration of [59Fe] in blood (cat intestine [6]; 240 minutes after administration into small intestine): 948 c.p.m. | 59Fe in the sternum (cat intestine [6]; confirms reticuloendothelial system (bone marrow)): high levels of ^59 Fe in the sternum | distribution of the iron in the body (cat intestine [6]; intrajejunal): widely distributed throughout the body | Percentage of original 59Fe dose, Blood (cat intestine [6]; intrajejunal, after 4 hours): 3% | Percentage of original 59Fe dose, Heart (cat intestine [6]; intrajejunal, after 4 hours): 1.5% | Percentage of original 59Fe dose, Intestinal Tissue (cat intestine [6]; intrajejunal, after 4 hours): 30% | Percentage of original 59Fe dose, Kidneys (cat intestine [6]; intrajejunal, after 4 hours): 0.05% | Percentage of original 59Fe dose, Liver (cat intestine [6]; intrajejunal, after 4 hours): 1.6% | Percentage of original 59Fe dose, Skeletal Muscle (cat intestine [6]; intrajejunal, after 4 hours): 0.8% | Percentage of original 59Fe dose, Spleen (cat intestine [6]; intrajejunal, after 4 hours): 0.1% | Percentage of original 59Fe dose, Urine (cat intestine [6]; intrajejunal, after 4 hours): 0.01% | Percentage of original 59Fe dose, Reticuloendothelial System (Bone Marrow) (cat intestine [6]; intrajejunal, after 4 hours, estimated): ~60%

SMILES: Cc1c(O)c(=O)ccn1C [3-hydroxy-1,2-dimethylpyrid-4-one]
logD at 100 µM [1, 7]: -0.678

SMILES: O=C([O-])[C@H](O)[C@@H](O)[C@H](O)[C@H](O)CO.O=C([O-])[C@H](O)[C@@H](O)[C@H](O)[C@H](O)CO.[Fe+2] [Fe^II gluconate]
Relative Iron Uptake (rat jejunal sac): 1.6

SMILES: CCn1ccc(=O)c(O)c1C [1-ethyl-3-hydroxy-2-methylpyrid-4-one, 1-Ethyl-3-hydroxy-2-methylpyrid-4-one]
logD at 100 µM [1, 9]: -0.398

SMILES: Cn1cccc(O)c1=O [3-hydroxy-1-methylpyrid-2-one]
logD at 100 µM [1, 7]: -0.357

SMILES: CCCCn1ccc(=O)c([O-])c1C.CCCCn1ccc(=O)c([O-])c1C.CCCCn1ccc(=O)c([O-])c1C.[Fe+3] [3:1 iron (III) complex of 1-butyl-3-hydroxy-2-methylpyrid-4-one]
Partition Coefficient, Kpart, Iron complex [Fe^III-(compound)3] [1, 7]: 7.70 | Amount of complex entering erythrocytes (human erythrocytes [2]): 1630 n.mole

SMILES: CCn1cccc(O)c1=O [1-ethyl-3-hydroxypyrid-2-one]
logD at 100 µM [1, 7]: -0.284

Now from value to molecule, other results behind:

logD at 100 µM [1, 7]: -2.82 | Relative Iron Uptake (rat jejunal sac; [8]): 0.4
SMILES: O=C1O[C@H]([C@@H](O)CO)C(O)=C1O [Fe^III ascorbate, iron (III) ascorbate, reference compound]

Partition Coefficient, Kpart, Iron complex [Fe^III-(compound)3] [1, 7]: 0.10 | Amount of complex entering erythrocytes (human erythrocytes [2]): 60 n.mole
SMILES: Cn1cccc([O-])c1=O.Cn1cccc([O-])c1=O.Cn1cccc([O-])c1=O.[Fe+3] [3:1 iron (III) complex of 3-hydroxy-1-methylpyrid-2-one]

Partition Coefficient, Kpart, Iron complex [Fe^III-(compound)3] [1, 7]: 0.03 | Amount of complex entering erythrocytes (human erythrocytes [2]): 20 n.mole
SMILES: CCn1ccc(=O)c([O-])c1C.CCn1ccc(=O)c([O-])c1C.CCn1ccc(=O)c([O-])c1C.[Fe+3] [3:1 iron (III) complex of 1-ethyl-3-hydroxy-2-methylpyrid-4-one]
iron removed from the iron complex by apotransferrin (apotransferrin): 55%

percentage of the total dose in the urine (cat intestine [3]; cat, 4 h): 21% | clearance into the urine (cat intestine [3]): cleared rapidly into the urine
SMILES: O=C([O-])CN(CCN(CC(=O)[O-])CC(=O)[O-])CC(=O)[O-].[Fe+3] [Fe^III EDTA, iron (III) EDTA]

Partition Coefficient, Kpart, Iron complex [Fe^III-(compound)3] [1, 7]: 6.20 | Amount of complex entering erythrocytes (human erythrocytes [2]): 710 n.mole
SMILES: CCCn1cccc([O-])c1=O.CCCn1cccc([O-])c1=O.CCCn1cccc([O-])c1=O.[Fe+3] [3:1 iron (III) complex of 3-hydroxy-1-propylpyrid-2-one]

Partition Coefficient, Kpart, Iron complex [Fe^III-(compound)3] [1, 7]: 0.20 | Amount of complex entering erythrocytes (human erythrocytes [2]): 22 n.mole
SMILES: Cc1c([O-])c(=O)ccn1C(C)C.Cc1c([O-])c(=O)ccn1C(C)C.Cc1c([O-])c(=O)ccn1C(C)C.[Fe+3] [3:1 iron (III) complex of 3-hydroxy-1-(1'-methylethyl)-2-methylpyrid-4-one]

Amount of complex entering erythrocytes (human erythrocytes [2]): 53 n.mole
SMILES: CCCn1ccc(=O)c([O-])c1C.CCCn1ccc(=O)c([O-])c1C.CCCn1ccc(=O)c([O-])c1C.[Fe+3] [3:1 iron (III) complex of 3-hydroxy-2-methyl-1-propylpyrid-4-one]

Partition Coefficient, Kpart, Iron complex [Fe^III-(compound)3] [1, 7]: 0.05 | Amount of complex entering erythrocytes (human erythrocytes [2]): 25 n.mole
SMILES: Cc1c([O-])c(=O)ccn1C.Cc1c([O-])c(=O)ccn1C.Cc1c([O-])c(=O)ccn1C.[Fe+3] [3:1 iron (III) complex of 3-hydroxy-1,2-dimethylpyrid-4-one]

Partition Coefficient, Kpart, Iron complex [Fe^III-(compound)3] [1, 7]: 13.50 | Amount of complex entering erythrocytes (human erythrocytes [2]): 770 n.mole
SMILES: CC(C)n1cccc([O-])c1=O.CC(C)n1cccc([O-])c1=O.CC(C)n1cccc([O-])c1=O.[Fe+3] [3:1 iron (III) complex of 3-hydroxy-1-(1'-methylethyl)pyrid-2-one]
